According to US5459158A, “Pharmaceutical compositions of indazoles and methods of use thereof” (priority 1992, dated 1995):
Read-outs that look alike come from different tables or passages of the source.

Experiments:
[1] = target: T1, rat cerebellar nitric oxide synthase (NOS) (Rattus norvegicus, UniProt P29476); assay: inhibition of rat cerebellar nitric oxide synthase (NOS); type: biochemical
T1 construct: from tissue
Experimental: Nitric oxide synthase (NOS) activity was determined in vitro by the method of Dwyer et al., Biochem. Biophys. Res. Commun. 1991, 176, 1136-1141. Mice (male, LACA, 28-32 g) were killed by cervical dislocation. Cerebella were removed, homogenized (1-10 w/v in 20 mM Tris buffer containing 2 mM EDTA, pH. 7.4) and aliquots (25 μl) incubated (37° C.) with L-arginine (120 nM) containing 0.5 μCi [^3 H]-arginine (specific activity 62 Ci mmol^-1), NADPH (0.5 mM) and CaCl2 (0.75 mM). […] Final incubation volume was 105 μl. After 15 minutes the reaction was stopped by addition of 3 ml HEPES buffer (20 mM containing 2 mM EDTA, pH 5.5) and the [^3 H]-citrulline produced was separated by cation exchange chromatography on 0.5 ml columns of Dowex AG50-W8 Na^+ form. [^3 H]-Citrulline was quantitated by liquid scintillation spectroscopy of duplicate 1 ml aliquots of the flow-through.

mice = assay: anti-nociceptive activity, formalin-induced hindpaw licking assay; type: in vivo, mouse; conditions: for Inhibition of licking (%): 50 mg kg^-1 i.p., late phase
Experimental: Control animals received 10 ml kg^-1 of arachis oil or saline (0.9% w/v NaCl).
The percentage inhibition of formalin-induced licking in the late phase following the administration of 50 mg kg^-1 i.p. of the indazoles is shown in the Table below.

mouse cerebellar NOS [2] = target: T2, mouse cerebellar NOS (Mus musculus, UniProt Q9Z0J4); assay: inhibition of mouse cerebellar nitric oxide synthase (NOS) activity in vitro; type: biochemical; conditions: for IC50: mouse cerebella homogenate, 15 minutes, 37° C., mean ± s.e. mean, n=6
T2 construct: Cerebella were removed, homogenized; from tissue; host or cells: cerebellum of male LACA mice, crude homogenate

[3] = blood pressure (MAP) of urethane-anaesthetized mice; type: in vivo, mouse; conditions: for mean arterial pressure (MAP): n=4
mouse cerebellar NOS [4] = target: T2, mouse cerebellar NOS; assay: mouse cerebellar NOS activity after i.p. administration (ex vivo); type: in vivo; conditions: n=6, P<0.01
Experimental: Nitric oxide synthase (NOS) activity was determined in vitro by the method of Dwyer et al., Biochem. Biophys. Res. Commun. […] Mice (male, LACA, 28-32 g) were killed by cervical dislocation. […] Final incubation volume was 105 μl. After 15 minutes the reaction was stopped by addition of 3 ml HEPES buffer (20 mM containing 2 mM EDTA, pH 5.5) and the [^3 H]-citrulline produced was separated by cation exchange chromatography on 0.5 ml columns of Dowex AG50-W8 Na^+ form. [^3 H]-Citrulline was quantitated by liquid scintillation spectroscopy of duplicate 1 ml aliquots of the flow-through.
Cerebella were removed, homogenized and NOS activity determined as described above.

nitric oxide synthase = conditions: Moore et al., British Journal of Pharmacology, 1991, 102, 198-202; cited from earlier work
[5] = rat cerebella, read-out: IC50 NOS
[6] = ratio of IC50 on mouse cerebellar NOS in vitro

T2 sequence (Q9Z0J4 whole entry): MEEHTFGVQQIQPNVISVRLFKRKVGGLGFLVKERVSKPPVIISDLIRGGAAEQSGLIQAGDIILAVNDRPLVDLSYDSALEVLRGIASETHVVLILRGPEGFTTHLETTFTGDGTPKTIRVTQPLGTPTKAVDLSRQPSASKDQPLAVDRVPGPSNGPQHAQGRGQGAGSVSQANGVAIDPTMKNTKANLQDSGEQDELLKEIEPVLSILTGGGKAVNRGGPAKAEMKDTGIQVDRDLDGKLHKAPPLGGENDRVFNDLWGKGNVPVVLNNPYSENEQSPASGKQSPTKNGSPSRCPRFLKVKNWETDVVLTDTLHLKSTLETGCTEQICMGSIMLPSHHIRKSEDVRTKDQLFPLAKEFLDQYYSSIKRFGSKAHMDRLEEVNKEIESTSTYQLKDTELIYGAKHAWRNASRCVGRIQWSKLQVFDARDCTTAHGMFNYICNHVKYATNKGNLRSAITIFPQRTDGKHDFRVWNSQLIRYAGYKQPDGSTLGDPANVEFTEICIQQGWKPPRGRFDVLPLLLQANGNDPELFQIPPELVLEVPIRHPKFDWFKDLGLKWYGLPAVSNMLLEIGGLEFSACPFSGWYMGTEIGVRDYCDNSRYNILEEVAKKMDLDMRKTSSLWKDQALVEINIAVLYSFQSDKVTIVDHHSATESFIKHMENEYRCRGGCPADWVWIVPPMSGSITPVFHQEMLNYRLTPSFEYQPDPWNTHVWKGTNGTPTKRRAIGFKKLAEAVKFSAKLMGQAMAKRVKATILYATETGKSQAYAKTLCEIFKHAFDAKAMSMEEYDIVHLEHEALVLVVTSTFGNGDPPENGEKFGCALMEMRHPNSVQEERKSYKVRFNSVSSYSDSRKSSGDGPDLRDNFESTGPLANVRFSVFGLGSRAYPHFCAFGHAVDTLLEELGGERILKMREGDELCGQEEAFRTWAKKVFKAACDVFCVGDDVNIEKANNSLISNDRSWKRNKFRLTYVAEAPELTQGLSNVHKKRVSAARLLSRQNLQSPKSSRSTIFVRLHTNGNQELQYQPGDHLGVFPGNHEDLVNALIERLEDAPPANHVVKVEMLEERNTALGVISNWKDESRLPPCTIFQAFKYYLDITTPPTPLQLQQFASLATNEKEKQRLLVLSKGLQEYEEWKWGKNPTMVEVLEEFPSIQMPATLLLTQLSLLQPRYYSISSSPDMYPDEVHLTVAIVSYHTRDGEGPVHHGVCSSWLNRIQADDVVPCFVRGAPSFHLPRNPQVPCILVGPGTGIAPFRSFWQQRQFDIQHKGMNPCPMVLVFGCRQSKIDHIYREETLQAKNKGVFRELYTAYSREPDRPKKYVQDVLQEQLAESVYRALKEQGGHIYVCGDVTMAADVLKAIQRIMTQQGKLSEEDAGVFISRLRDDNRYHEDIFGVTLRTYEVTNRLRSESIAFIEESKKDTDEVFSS

Compound: O=[N+]([O-])c1ccc2[nH]nc(Cl)c2c1 [3-chloro-5-nitroindazole]
- IC50 [1, 5]: 177 µM

Compound: Clc1n[nH]c2ccccc12 [3-chloroindazole]
- IC50 [1, 5]: 100 µM

Compound: O=[N+]([O-])c1ccc2[nH]ncc2c1 [5-nitroindazole]
- IC50 [1, 5]: 56 µM

Compound: O=[N+]([O-])c1ccc2cn[nH]c2c1 [6-nitroindazole]
- Inhibition of licking (%) (mice): 67.0 ± 12.0%
- IC50 [1, 5]: 32 µM

Compound: O=[N+]([O-])c1cccc2cn[nH]c12 [7-nitroindazole]
- IC50 (mouse cerebellar NOS [2]): 0.47 ± 0.01 µM
- times more potent than L-NAME (mouse cerebellar NOS [2]; [6]): 1.8 times
- times more potent than L-NMMA (mouse cerebellar NOS [2]; [6]): 5 times
- mean arterial pressure (MAP) ([3]; 25 mg kg^-1 i.p., cf 51.6±4.4 before administration): 47.4±5.1 mmHg
- mean arterial pressure (MAP) ([3]; 80 mg kg^-1 i.p., cf 49.5±2.9 before administration): 43.9±5.3 mmHg
- mean arterial pressure (MAP), change in words ([3]; 25 and 80 mg kg^-1 i.p., over 45 minutes): did not increase mean arterial pressure
- Inhibition of licking (%) (mice): 100%
- early phase response of formalin-induced hindpaw licking (in words) (mice; 10, 25 and 50 mg kg^-1 i.p., early phase (0-5 minutes)): without influencing the early phase response
- inhibition of late phase formalin-induced hindpaw licking (in words) (mice; 10, 25 and 50 mg kg^-1 i.p., late phase (15-30 minutes)): dose-related inhibition of late phase formalin-induced hindpaw licking
- ED50 for the anti-nociceptive effect (mice; i.p., mice): 26 mg/kg
- ED50 for the anti-nociceptive effect (equivalent) (mice; i.p., mice, converted from 26 mg kg^-1): 159.5 µmol/kg
- decrease of mouse cerebellar NOS activity (mouse cerebellar NOS [4]; 25 mg kg^-1, i.p., 15 minutes thereafter): over 55%
- mouse cerebellar NOS activity (mouse cerebellar NOS [4]; 25 mg kg^-1, i.p., 15 minutes, cf 9.1±0.26 arachis oil-injected controls): 3.9±0.06 nmol citrulline mg^-1 protein 15 min^-1

Compound: COC(=O)[C@@H](N)CCCNC(=N)N[N+](=O)[O-] [L-NAME, L-N^G -nitroarginine methyl ester, reference compound]
- IC50 (mouse cerebellar NOS [2]): 0.87 ± 0.02 µM
- mouse cerebellar NOS activity (mouse cerebellar NOS [4]; 50 mg kg^-1, i.p., 15 minutes, cf 8.33±0.15 saline-injected controls): 4.46±0.012 pmol citrulline mg^-1 protein 15 min^-1
- inhibition at 50 mg/kg (mouse cerebellar NOS [4]; mouse, ip, 50 mg kg^-1, i.p., 15 minutes): 46.2 ± 1.6%
- block of nitric oxide synthase in brain and peripherally (nitric oxide synthase): blocks this enzyme not only in the brain but also peripherally

Compound: CNC(=N)NCCC[C@H](N)C(=O)O [L-NMMA, L-N^G -monomethyl arginine, reference compound]
- IC50 (mouse cerebellar NOS [2]): 2.37 ± 0.03 µM

Compound: c1ccc2[nH]ncc2c1 [indazole]
- Inhibition of licking (%) (mice): 83.2 ± 12.2%
- IC50 [1]: 232 µM
